Assay [1] relates to Chs3. Description: iTRAQ protein level of chitin synthase. Type of assay: cell-based, S. cerevisiae. The settings on record: 25 μg/mL, 16 hours. As to the method: (§1) WT cells were grown to 10^5 CFU/mL in YPD medium and then treated with 25 μg/mL compounds or 0.25% DMSO for 16 hours at 30 °C. The cells were collected by centrifugation at 1500 g for 5 min and then stored at −80 °C. The frozen samples were grounded to a fine powder with liquid nitrogen and then transferred to an Eppendorf tube with phenol extraction buffer containing 1 mM Phenylmethanesulfonyl fluoride (PMSF). The samples were lysed with sonication, and proteins were extracted with phenol and then precipitated with ammonium acetate/methanol. The methanol was excluded by acetone, and the precipitates were collected by centrifugation at 12,000 g for 10 min at 4 °C. The precipitates were dried at room temperature for 3 min and dissolved in SDS lysis buffer for 2 hours. The samples were further centrifuged at 12,000 g for 10 min, and the collected supernatants were centrifuged again to remove precipitation completely. After the determination of protein concentration using Pierce^TM BCA Protein Assay kit (Thermo Scientific, Rockford, IL, USA), the protein samples were aliquoted for storage at −80 °C.
Sequence of Chs3 (P29465 whole entry): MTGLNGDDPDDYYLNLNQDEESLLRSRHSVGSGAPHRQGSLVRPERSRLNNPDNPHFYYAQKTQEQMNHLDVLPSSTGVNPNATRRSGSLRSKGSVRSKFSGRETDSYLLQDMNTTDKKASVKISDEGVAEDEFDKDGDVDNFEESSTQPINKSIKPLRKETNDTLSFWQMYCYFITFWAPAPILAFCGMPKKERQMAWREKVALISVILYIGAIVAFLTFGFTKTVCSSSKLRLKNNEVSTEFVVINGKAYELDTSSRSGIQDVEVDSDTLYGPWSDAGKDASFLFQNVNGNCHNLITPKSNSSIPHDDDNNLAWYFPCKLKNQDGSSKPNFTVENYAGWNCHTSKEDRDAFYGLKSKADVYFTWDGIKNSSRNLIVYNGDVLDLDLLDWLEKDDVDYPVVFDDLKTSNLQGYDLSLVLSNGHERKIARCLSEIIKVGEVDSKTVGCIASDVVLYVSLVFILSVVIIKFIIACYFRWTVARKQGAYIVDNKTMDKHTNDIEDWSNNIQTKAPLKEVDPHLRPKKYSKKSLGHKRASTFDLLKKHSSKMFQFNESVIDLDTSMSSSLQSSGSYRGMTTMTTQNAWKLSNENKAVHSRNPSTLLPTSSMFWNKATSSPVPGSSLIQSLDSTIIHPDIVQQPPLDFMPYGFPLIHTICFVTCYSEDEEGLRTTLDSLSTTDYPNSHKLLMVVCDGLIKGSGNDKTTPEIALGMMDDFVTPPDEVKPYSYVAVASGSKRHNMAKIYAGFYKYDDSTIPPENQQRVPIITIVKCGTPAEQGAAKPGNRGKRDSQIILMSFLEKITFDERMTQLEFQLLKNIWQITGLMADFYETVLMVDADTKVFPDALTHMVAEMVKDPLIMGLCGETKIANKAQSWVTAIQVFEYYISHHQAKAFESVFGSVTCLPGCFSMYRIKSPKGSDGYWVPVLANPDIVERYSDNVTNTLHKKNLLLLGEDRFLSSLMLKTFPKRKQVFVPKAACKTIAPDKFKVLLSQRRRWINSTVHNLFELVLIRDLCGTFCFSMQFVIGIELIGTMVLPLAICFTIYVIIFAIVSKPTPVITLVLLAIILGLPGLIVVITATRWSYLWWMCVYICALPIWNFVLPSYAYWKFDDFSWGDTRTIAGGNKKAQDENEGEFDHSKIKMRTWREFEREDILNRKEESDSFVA
(§2) The Filter Aided Sample Preparation (FASP) digestion was performed according to a universal sample preparation method for proteome analysis. Peptides were labeled by iTRAQ using iTRAQ Reagents Multiplex Kit (AB SCIEX, Framingham, MA, USA) and then were fractionated by SCX chromatography using the AKTA Purifier system (GE Healthcare, Stockholm, Sweden). LC-MS/MS analysis was performed on Nano LC-1D plus (Eksigent, San Francisco, CA, USA) that was coupled to Triple TOF 6600 spectrometer (AB SCIEX, Framingham, MA, USA) for 50 min. The mass spectrometer was operated in positive ion mode. The MS/MS data were analyzed for protein identification and quantification using ProteinPilot software (v.5). The local false discovery rate was estimated with the integrated PSPEP tool in the ProteinPilot Software to be 1% after searching against a decoy concatenated UniProt S. cerevisiae protein database. For a protein showing differential expression, it must have been identified and quantified with at least one significant peptide, and the p-values of the proteins quantitation should be less than 0.05 and fold change ≥1.5.

Another assay concerns Chs2. Description: iTRAQ protein level of chitin synthase. Type of assay: cell-based, S. cerevisiae. As to conditions: 25 μg/mL, 16 hours. The method, then:
as §1, §2

Assay [2] has as its system Chs1. Description: iTRAQ protein level of chitin synthase. The assay is classed as cell-based, S. cerevisiae. The settings on record: 25 μg/mL, 16 hours. As to the method:
as §1, §2

The test system of the next assay is WT yeast cells (BY4741). Nature of the assay: Growth curve assay (OD600 over time). Type of assay: cell-based, S. cerevisiae. As to the method:
Fresh cell cultures of WT yeast S. cerevisiae and Candida albicans ATCC10231 (OD600 = 0.8) were diluted in YPD medium (OD600 = 0.05). Then, IMB-D10 and IMB-F4 were added at concentrations ranging from 12.5 to 100 μg/mL. The cells were collected at different time points, and OD600 was measured with Multi-label Reader. Three experiments were performed independently, and the mean ± SD was calculated.

The test system of another assay is WT S. cerevisiae. Nature of the assay: Checkerboard assay, synergy with caspofungin. The settings on record: S. cerevisiae, MIC80; for MIC of Caspofungin Combination: MIC of caspofungin in combination with the named compound; for MIC Combination: MIC of the compound in combination with caspofungin. The assay is classed as cell-based. As to the method: (§3) Fresh cell cultures of WT S. cerevisiae and C. albicans ATCC10231 (OD600 = 0.8) were diluted to 10^4 CFU/mL in YPD medium. The in vitro synergistic and antagonistic effects of compounds were determined using checkerboard assay. MIC endpoints were defined as the lowest concentration of drugs, causing 80% decrease in viability compared to the drug-free control (MIC80). The calculation and interpretation of the fractional inhibitory concentration index (FICI) were carried out by referring to the document standards. FICI = (MIC of drug A in combination) / (MIC of drug A alone) + (MIC of drug B in combination) / (MIC of drug B alone). FIC ≤0.5 was considered as a synergistic effect, and >2 was considered as antagonism.

For another assay, the system named is C. albicans ATCC10231. Description: Checkerboard assay, synergy with caspofungin. The assay is classed as cell-based. As to conditions: Candida albicans; for MIC of Caspofungin Combination: MIC of caspofungin in combination with the named compound; for MIC Combination: MIC of the compound in combination with caspofungin. The method, then: as §3
Assay [3] has as its target T1, Chs3 (Saccharomyces cerevisiae, UniProt P29465).
T1 construct: The pellet was resuspended in 50 mM Tris-HCl pH 7 and used as membrane protein of Chs3; endogenous in cells; host or cells: S. cerevisiae WT BY4741, crude membrane fraction
Description: Chitin synthase activity assay (WGA-coated plate). Type of assay: biochemical, S. cerevisiae. The method, then:
(§4) The inhibitory effect of compounds IMB-D10 and IMB-F4, on the activity of chitin synthases 1, 2, and 3, was measured by the procedure, described previously. In brief, WT yeast cells were grown in YPD medium to OD600 1–2. The cells were sedimented at 1500 g for 15 min at 4 °C and washed once with water. Then, the cells were resuspended in cold 100 mM Tris-HCl (pH 7.5) buffer containing protease inhibitors, and broken by 10 cycles of vortexing with acid-washed glass beads (1 min each). The broken cells were centrifuged for 15 min at 1500g to eliminate cell wall and debris. One volume of supernatant was placed on 2 volumes of 10% w/w sucrose in 100 mM Tris-HCl pH 7.5 and centrifuged at 55,000 g for 2 hours. The pellet was resuspended in 50 mM Tris-HCl pH 7 and used as membrane protein of Chs3. For Chs1 and Chs2, the membrane protein was pretreated with 80 μg/mL trypsin for 30 min at 30 °C.
(§5) To assess the enzyme activity of Chs1, the assay mixture contained 15 μg membrane protein, 5 mM MgCl2, 32 mM Tris-maleate (pH6.5), 0.2% digitonin, 40 mM N-acetyl-glucosamine (GlcNAc), and 4 mM UDP-GlcNAc. For Chs2, the mixture contained 15 μg pretreated membrane protein, 1.6 mM CoCl2, 32 mM Tris-HCl (pH 8), 40 mM GlcNAc, and 4 mM UDP-GlcNAc. For Chs3, the mixture contained pretreated membrane protein 15 μg, 1.6 mM CoCl2, 5 mM NiCl2, 32 mM Tris-HCl (pH 8), 40 mM GlcNAc, and 4 mM UDP-GlcNAc. Different concentrations of IMB-D10 and IMB-F4 were added to the mixture, and the reaction without UDP-GlcNAc was used to measure background absorbance. The 96-well plate coated with 50 μg/mL wheat germ agglutinin (WGA) was washed three times with water, and the reaction mixture was added into the wells and incubated at 30 °C for 60 min. The reaction was stopped by 50 mM EDTA, and the plate was emptied and washed with a large volume of water, followed by the addition of 200 μL 0.5 μg/mL WGA-HRP and incubation for 5 min at room temperature. The plate was washed 5 times with running distilled water. Then, the Tetramethylbenzidine (TMB) reagent was added, and the optical density at 600 nm (OD600) was immediately detected with Multilabel Reader (Envision, PE, Pontyclun, UK). All reactions were performed in triplicate.

The subject of assay [4] is Chs1. Description: Chitin synthase activity assay (WGA-coated plate). The settings on record: membrane protein from WT yeast. The assay is classed as biochemical, S. cerevisiae. The method, then:
as §4, §5

T1 sequence (P29465 whole entry): as above
Sequence of Chs2 (P14180 whole entry): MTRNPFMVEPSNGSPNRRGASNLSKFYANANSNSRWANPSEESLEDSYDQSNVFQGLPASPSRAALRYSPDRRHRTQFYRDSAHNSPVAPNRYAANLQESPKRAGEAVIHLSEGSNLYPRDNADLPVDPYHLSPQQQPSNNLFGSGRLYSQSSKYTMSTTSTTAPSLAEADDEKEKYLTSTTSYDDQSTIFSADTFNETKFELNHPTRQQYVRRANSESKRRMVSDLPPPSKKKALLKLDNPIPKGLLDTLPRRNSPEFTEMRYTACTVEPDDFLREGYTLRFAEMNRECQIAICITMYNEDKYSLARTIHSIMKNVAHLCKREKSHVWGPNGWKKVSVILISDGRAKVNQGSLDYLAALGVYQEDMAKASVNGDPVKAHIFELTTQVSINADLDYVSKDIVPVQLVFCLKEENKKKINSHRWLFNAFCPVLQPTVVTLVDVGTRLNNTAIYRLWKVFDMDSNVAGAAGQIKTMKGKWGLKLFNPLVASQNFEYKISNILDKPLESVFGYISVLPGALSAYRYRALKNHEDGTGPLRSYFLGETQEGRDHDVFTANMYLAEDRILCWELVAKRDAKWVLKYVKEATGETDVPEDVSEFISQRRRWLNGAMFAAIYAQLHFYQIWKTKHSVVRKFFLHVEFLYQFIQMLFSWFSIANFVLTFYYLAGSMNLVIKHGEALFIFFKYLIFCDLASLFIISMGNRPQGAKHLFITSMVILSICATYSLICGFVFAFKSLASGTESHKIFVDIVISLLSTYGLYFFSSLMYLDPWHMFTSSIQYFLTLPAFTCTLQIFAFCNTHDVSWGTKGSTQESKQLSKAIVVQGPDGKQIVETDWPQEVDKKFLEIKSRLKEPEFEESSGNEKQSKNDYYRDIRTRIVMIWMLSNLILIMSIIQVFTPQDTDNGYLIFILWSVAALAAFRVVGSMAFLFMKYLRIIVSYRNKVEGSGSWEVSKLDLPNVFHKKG
Sequence of Chs1 (P08004 whole entry): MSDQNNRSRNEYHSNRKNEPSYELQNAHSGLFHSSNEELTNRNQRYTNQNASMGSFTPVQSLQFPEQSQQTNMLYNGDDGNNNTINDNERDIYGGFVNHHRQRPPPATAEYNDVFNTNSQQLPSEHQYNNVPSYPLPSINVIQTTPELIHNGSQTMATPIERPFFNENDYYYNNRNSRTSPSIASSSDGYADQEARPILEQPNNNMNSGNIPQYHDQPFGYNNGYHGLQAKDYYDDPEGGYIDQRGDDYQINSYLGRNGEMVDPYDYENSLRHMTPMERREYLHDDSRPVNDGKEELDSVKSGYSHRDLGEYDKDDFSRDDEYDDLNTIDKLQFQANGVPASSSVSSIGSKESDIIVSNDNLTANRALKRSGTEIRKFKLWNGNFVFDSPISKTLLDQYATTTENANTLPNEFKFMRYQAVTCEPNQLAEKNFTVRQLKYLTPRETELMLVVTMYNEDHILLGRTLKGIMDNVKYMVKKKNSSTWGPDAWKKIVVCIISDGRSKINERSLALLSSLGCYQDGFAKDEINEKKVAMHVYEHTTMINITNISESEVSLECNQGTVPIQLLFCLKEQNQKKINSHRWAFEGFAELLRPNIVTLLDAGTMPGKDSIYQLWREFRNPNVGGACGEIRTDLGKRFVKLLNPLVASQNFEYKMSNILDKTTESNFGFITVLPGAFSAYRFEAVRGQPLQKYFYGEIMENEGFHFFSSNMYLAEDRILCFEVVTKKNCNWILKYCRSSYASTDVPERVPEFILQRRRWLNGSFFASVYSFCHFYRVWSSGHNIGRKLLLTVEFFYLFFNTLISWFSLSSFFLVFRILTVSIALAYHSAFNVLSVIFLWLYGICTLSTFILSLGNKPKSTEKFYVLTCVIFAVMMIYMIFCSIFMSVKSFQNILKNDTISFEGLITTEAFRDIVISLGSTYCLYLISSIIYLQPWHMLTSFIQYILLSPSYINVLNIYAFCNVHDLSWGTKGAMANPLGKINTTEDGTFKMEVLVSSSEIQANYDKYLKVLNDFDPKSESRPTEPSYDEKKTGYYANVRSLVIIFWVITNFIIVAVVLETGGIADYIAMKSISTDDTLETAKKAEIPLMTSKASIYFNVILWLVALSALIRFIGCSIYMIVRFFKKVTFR

The MIC is the least concentration at which growth counts as inhibited. For orientation: IC50 means the concentration that inhibits the measured activity by half. For the molecule `COc1cc(OC)cc(C(=O)N(CCn2ccnc2)c2nc3ccc(OC)cc3s2)c1` [IMB-F4, N-(2-(1H-imidazol-1-yl)ethyl)-3,5-dimethoxy-N-(6-methoxybenzo[d]thiazol-2-yl)benzamide], the “relative abundance of Chs3 compared with cells treated with DMSO” value with Chs3 [1] is recorded as “remained similar”. In addition, in the assay with Chs2, the “relative abundance of Chs2 compared with cells treated with DMSO” value is “remained similar”. Moreover, the “relative abundance of Chs1 compared with cells treated with DMSO” value with Chs1 [2] is “remained similar”. In addition, the “growth of yeast cells over time (OD)” value in the assay on WT yeast cells (BY4741) is on record as “dose-dependent slow growth”. The “MIC of Caspofungin Combination” value in the assay on WT S. cerevisiae turned out to be 0.0075 µg/mL; in the assay on C. albicans ATCC10231 (MIC80) it was 0.003125 µg/mL. Further, the entries for the “MIC Combination” value in the assay on WT S. cerevisiae and in the assay with C. albicans ATCC10231 (MIC80) were 25 µg/mL and 12.5 µg/mL, respectively. The MIC in the assay on WT S. cerevisiae (Saccharomyces cerevisiae, compound alone, read-out: MIC Alone) was > 100 µg/mL; with C. albicans ATCC10231 (ATCC10231, compound alone, MIC80, read-out: MIC Alone), > 100 µg/mL. Moreover, the FICI in the assay with C. albicans ATCC10231 (fractional inhibitory concentration index with caspofungin, ≤0.5 synergistic) is <0.5. Also, the IC50 against Chs3 [3] is 6.76 µM. Besides, the “inhibition of Chs1 activity” value in the assay on Chs1 [4] is “only inhibited the activity of Chs2 and Chs3”.
On to “N-(2-(diethylamino) ethyl)-N-(7-hydroxy-4-methoxybenzo[d]thiazol -2-yl)-2-oxo-2H-chromene-3-carboxamide [IMB-D10]”, for which, in the assay on Chs3 [1], the “relative abundance of Chs3 compared with cells treated with DMSO” value stood at 18.33 ± 1.89%. In the assay on Chs2, the “relative abundance of Chs2 compared with cells treated with DMSO” value was determined as 21.33 ± 6.18%. The “relative abundance of Chs1 compared with cells treated with DMSO” value in the assay on Chs1 [2] is reported as 22 ± 5.10%. Further, the “growth of yeast cells over time (OD)” value in the assay on WT yeast cells (BY4741) was “dose-dependent slow growth”. The “MIC of Caspofungin Combination” value in the assay on WT S. cerevisiae was 0.0075 µg/mL; with C. albicans ATCC10231 (MIC80) it was 0.00625 µg/mL. The “MIC Combination” value in the assay with WT S. cerevisiae and in the assay with C. albicans ATCC10231 (MIC80) was 12.5 µg/mL in each case. For the same molecule, the “MIC Alone” value with WT S. cerevisiae (compound alone) came out at 50 µg/mL; with C. albicans ATCC10231 (compound alone, MIC80), 100 µg/mL. Also, the “IC50 Chs3” value at Chs3 [3] (membrane protein from WT yeast) was determined as 13.08 ± 2.08 µg/mL. Also, the “IC50 Chs1” value with Chs1 [4] came to 17.46 ± 3.39 µg/mL.

The record behind these values is publication PMC6749524, “Identification of New Antifungal Agents Targeting Chitin Synthesis by a Chemical-Genetic Method” (Molecules, 2019).
